Read-outs that look alike come from different tables or passages of the source. A value given as a limit tells only on which side of the number the result lay.

In data set [1] the test system is Human Cytomegalovirus (HCMV). Put plainly: HCMV EC50 in MRC-5 cells (qPCR of intracellular CMV DNA). In kind it is cell-based. On the procedure:
Costar 96-well tissue culture plates were seeded with 20,000 MRC-5 cells/well in EMEM containing 2% Hyclone Standard Fetal Bovine Serum and 1% Hyclone Penicillin and Streptomycin. Outer wells were not used to minimize the edge-effect produced by extended incubations. Cells were inoculated with HCMV at an MOI of 0.01. Serial dilutions of test compounds were added to the cells and plates were incubated for 7 days at 37° C. in 5% CO2. […] Culture medium was gently removed from infected cells after the 7-day incubation. The cells were rinsed twice with ice-cold PBS, and then freeze/thawed once. Each well was incubated with 200 μL lysis buffer for 2 hours at 55° C. Lysis buffer included 0.5 mg/mL protease K, 50 mM KCl, 10 mM Tris-Cl pH 8.0, 2.5 mM MgCl2, 0.45% IGEPAL, and 0.45% Tween-20 dissolved in DEPC-treated water. Intracellular CMV DNA was measured by quantitative polymerase chain reaction (qPCR) using forward and reverse HCMV PCR primers, and a FAM-labeled probe. Absolute quantitation of viral copy number was performed using a standard curve with dilutions of a HCMV DNA amplicon containing sequences homologous to the amplified fragment. The following qPCR amplification conditions were used: 1 cycle at 95° C. for 10 minutes, followed by 45 cycles of 95° C. for 15 seconds and 60° C. for 60 seconds. The qPCR reactions were performed using an Applied Biosystems 7500 real Time PCR System. Gen 5 software (BioTek Instruments, Inc.) was used to calculate the concentration which inhibited the viral DNA levels of HCMV-infected MRC-5 cells by 50% (EC50).
Background: Quantitative PCR measures a nucleic acid by following its amplification.

Data set [2] deals with Herpes Simplex Virus 1 (Strain E-377). Put plainly: Plaque reduction assay, HSV-1 in human foreskin fibroblast cells. In kind it is cell-based. The conditions noted are these: Human alphaherpesvirus 1; Strain E-377, human foreskin fibroblast cells. (Plaques are areas of infected cells; plaque reduction assays count them against a control.)
Data set [3] in a line: in vitro. Conditions: human.
Data set [4] in a line: in vitro. The conditions noted are these: African green monkey.
Data set [5] is described as follows: Cytotoxicity in 2.2.15 cells. In kind it is cell-based. Conditions: human, cell line 2.2.15 (HBV row).
Data set [6] can be described thus: in vitro. Conditions: dog.
The subject of data set [7] is Influenza virus A/CA/10/2009. Kind of data set: microbe, parasite or virus in culture. Format: cell-based. Conditions: unidentified influenza virus, MDCK, read-out: A/CA/10/2009 (EC50, μM).
Data set [8] in a line: Cytotoxicity in MEF cells. In kind it is cell-based. Conditions: mouse, cell line MEF (MCMV row).
Data set [9] deals with HCMV UL54 resistant mutant D542E (HDP-CDV^R). Kind of data set: microbe, parasite or virus in culture. Format: cell-based, Human Cytomegalovirus (HCMV).
The subject of data set [10] is Vaccinia Virus (Strain Copenhagen). Put plainly: microbe, parasite or virus in culture. Conditions: Orthopoxvirus vaccinia, Fibroblast, read-out: VACV EC50, μM. In kind it is cell-based.
A further data set relates to Ebola. Put plainly: microbe, parasite or virus in culture. Format: cell-based, ebola virus. Conditions: Zaire ebolavirus.
Another data set relates to Epstein-Barr virus. Put plainly: DNA Hybridization Assay for EBV in Akata cells. Format: cell-based. Conditions: human gammaherpesvirus 4, read-out: Efficacy DNA Hybridization Assay (EC50). On the procedure: Akata cells latently infected with EBV were obtained from John Sixbey. The GS strain of HHV-6A was obtained through the NIH AIDS Research and Reference Reagent Program.
Each experiment that evaluated the antiviral activity of the compounds included both positive and negative control compounds to ensure the performance of each assay. Concurrent assessment of cytotoxicity was also performed for each study at equivalent levels of compound exposure. When sufficient material was available, multiple assays were performed for each compound evaluation to obtain statistical data.
Assays for EBV were performed in Akata cells that were induced to undergo a lytic infection with 50 μg/ml of a goat anti-human IgG antibody by standard methods. Experimental compounds were diluted in round bottom 96-well plates to yield concentrations ranging from 20 to 0.016 μM. Akata cells were added to the plates at a concentration of 4×10^4 cells per well and incubated for 72 h. For HHV-6 assays, compounds were serially diluted in 96-well plates then 1×10^4 uninfected HSB-2 or Molt-3 cells were added to each well. Infection was initiated by adding HHV-6A infected HSB-2 cells, or HHV-6B infected Molt-3 cells, at a ratio of approximately 1 infected cell for every 10 uninfected HSB-2 cells or Molt-3 cells respectively and incubated for 7 d at 37° C. […]

The subject of another data set is HHV-8. Put plainly: HHV-8 antiviral activity in BCBL-1 cells. Format: cell-based, human herpes virus 8 (HHV-8). The conditions noted are these: Homo sapiens, BCBL1; Virus HHV-8, cell line BCBL-1.

The EC90 is the concentration at which the effect reaches the 90% level. For `CC(C)CCCCCCCCCCCCCCOCCCOP(=O)(O)COC(CO)Cn1ccc(=O)[nH]c1=O` (stereo not drawn) [Compound 12], the EC50 in data set [1] (Human betaherpesvirus 5, MRC5, HCMV in MRC-5 cells (Table 7), read-out: CMV EC50) is 0.027 µM; in data set [1] (Human betaherpesvirus 5, MRC5, Mean XC50 (Table 9), read-out: HCMV EC50) it was 0.017 µM; in [1] (Human betaherpesvirus 5, Virus HCMV, cell line MRC5 (Table 8), read-out: EC50) it was 0.017 µM; in data set [2], greater than 50 µM; in data set [7], greater than 4 µM; in data set [9] (Human betaherpesvirus 5, Fibroblast, read-out: EC50 μM, Virus D542E (HDP-CDV^R), human foreskin fibroblast cells) it was roughly 5.41 µM. Moreover, the EC50 in data set [10] was greater than 10 µM; with Ebola it was 1 µM; in the data set on Epstein-Barr virus, greater than 10 µM; in the data set on HHV-8, less than 0.08 µM. Also, the CC50 in the data set “in vitro [3]” was greater than 20 µM; in the data set “in vitro [3]” (CC50 (μM)) it was 36.9 µM; in the data set “in vitro [4]”, 29 µM; in data set [5], 34 µM; in the data set “in vitro [6]”, 17.2 µM; in data set [8] it was 60 µM. Further, the EC90 in data set [9] (Human betaherpesvirus 5, Fibroblast, read-out: EC90 μM) was greater than 10 µM. The “efficacy on UL54 HCMV resistant variants” value in [9] (effect of mutations in UL54 which reduce efficacy for HDP-CDV) was “reduced”.
